{
  "source": "paper PMC7870626",
  "about": "“Neurotoxicity and underlying cellular changes of 21 mitochondrial respiratory chain inhibitors” (Archives of Toxicology, 2021)",
  "key": {"LUHMES cells [1]": {"test_system": "LUHMES cells", "experiment": "LUHMES 120 h exposure scenario, neurite effects", "format": "cell-based, human", "method": "(§1) The NeuriTox test was performed as previously described (Delp et al. [2018b]; Krug et al. [2013a]; Stiegler et al. [2011]). Briefly, cells differentiated for 48 h were re-seeded into 96-well plates at a density of 100,000 cells/cm^2 in DM without cAMP and GDNF, and treated 1 h after seeding for 24 h. Subsequently, multiple endpoints were determined, e.g., neurite outgrowth (i.e., NeuriTox test), resazurin reduction, intracellular ATP content, gene expression levels from TempO-Seq analysis, and proteasomal activity. For the 120 h exposure scenario, LUHMES cells were differentiated for another 3 days after reseeding before they were treated on day 5 (d5) and d7 by a half medium exchange. Endpoints were determined on d10 of differentiation.\n(§2) Image acquisition and analysis was performed as described previously (Krug et al. [2013a]; Schildknecht et al. [2013]; Stiegler et al. [2011]). In brief, cells were live-stained with 1 µg/ml Hoechst H-33342 and 1 µM calcein-AM and image acquisition was done by an automated high content imager (Cellomics, Waltham, MA, USA). Cell viability was determined as ratio of live cells (cell bodies being Calcein- and Hoechst-positive) relative to the total amount of cells (Hoechst-positive cell bodies). Neurite area was calculated by subtracting the somatic area (Hoechst-positive area plus surrounding) from the calcein-positive area."}, "SH-SY5Y cells [2]": {"test_system": "SH-SY5Y cells", "format": "cell-based, human", "settings": "120 h exposure, up to 10 µM", "method": "The cells are able to form neurites and display several dopaminergic characteristics. […] Differentiation was initiated 24 h later (on day 0, d0) by exchange to 100 µl/well differentiation medium (DMEM:F12, supplemented with 1 µM all-trans retinoic acid (RA), 1 × N2 supplement, 2 mM L-glutamine, 100 µg/ml streptomycin, and 100 U/ml penicillin). All media and supplements were obtained from Gibco (ThermoFisher) except from RA (Sigma).\nOn d3, 100 µl of fresh differentiation medium were added to the wells. For the 120 h exposure, this medium contained twice the final treatment concentration. On d6, 100 µl from each well were removed, and the procedure was repeated and the cells were analyzed on d8. For the 24 h exposure, cells received an addition of 100 µl pure differentiation medium on d3 and were treated with compounds as described above on d6 for 24 h before analysis. […] The cells were incubated with the stain mixture for 20 min at 37 °C, 5% CO2. After incubation, 130 µL of differentiation medium were added to all the wells to stop further staining of the cells. Images were obtained using ImageXpress® Micro (Molecular Devices). […] The mean neurite length was calculated using the Neurite Outgrowth plug-in in the MetaXpress® Software. Outgrowths were defined as cytoplasmic prolongations with a maximum width of 2 µm (3 pixels). The minimum outgrowth size needed to be logged as significant was defined as 15 µm (23 pixels)."}, "U2OS cells": {"test_system": "U2OS cells", "experiment": "cells", "format": "cell-based", "settings": "Homo sapiens, U2OS, 24 h, read-out: Cytotox EC25 U2OS", "method": "A cell suspension of 100,000 cells/ml was prepared in assay medium, and white 384-well plates were filled with 30 µl/well cell suspension. Twenty-four hours after seeding, a dilution series of test compound, as well as positive and negative controls, were added to the cells. After 24 h exposure, the medium was removed, and 10 µl of Triton X-100 lysis buffer was added to each well. The luminescent signal was determined in a luminometer by injecting BDS Illuminate Mix and measuring the light emission. The Cytotox CALUX cell line constitutively expresses a high level of luciferase protein; the light emission is therefore proportional to the cell number of live cells, and its decrease can be used as measure of cytotoxicity. The light emission generated by cells exposed to vehicle control was set to 100%, and the luminescence of cells exposed to the positive control toxicant tributyltin acetate [100 µM] was set to 0%. The light output of the cells exposed to different concentrations of test compounds was scaled accordingly."}, "LUHMES cells [3]": {"test_system": "LUHMES cells", "experiment": "Intracellular ATP content after NeuriTox exposure", "format": "cell-based", "settings": "Homo sapiens; NeuriTox exposure scheme, 24 h; read-out: LUHMES 24 h EC25 ATP (converted)", "method": "as §1\nPlates from the NeuriTox test were further used after imaging for determination of alternative endpoints. Intracellular ATP was determined as described earlier (Delp et al. [2019]). In brief, CellTiterGlo 2.0 assay mix (Promega) containing luciferase was added after imaging, and luminescence was recorded. For the determination of resazurin reduction, a 10 × resazurin stock solution was added after imaging to the medium (final resazurin concentration 2 µg/ml) (Delp et al. [2018a]). After 60 min incubation, resazurin fluorescence was recorded (ex: 530 nm, em: 590 nm). Background-corrected data was used for further analysis."}, "LUHMES cells [4]": {"test_system": "LUHMES cells", "experiment": "NeuriTox test: neurite area and viability, 24 h", "format": "cell-based, human", "settings": "Homo sapiens", "method": "as §1, §2"}, "SH-SY5Y cells [5]": {"test_system": "SH-SY5Y cells", "experiment": "Mitochondrial membrane potential (rhodamine 123), KE2 assay", "format": "cell-based, human", "settings": "Homo sapiens, SH-SY5Y, 24 h, read-out: pEC25 MMP (concentration where MMP was reduced by 25%)", "method": "Cells were plated at a cell density of 29,500 cells/cm^2 and handled as described above for the neurite SH-SY5Y degeneration. On d6 of differentiation, 50% of the medium was replaced by differentiation medium containing 2 µM Rhodamine 123 (ThermoFisher). After 45 min of preloading at 37 °C with 5% CO2 in darkness, the Rhodamine 123 solution was completely removed and cells were carefully washed once with 200 µl DMEM:F12. Subsequently, 50 µl differentiation medium per well were added followed by the addition of 50 µl/well of test compounds in medium. After 24 h of exposure to the test compounds, the nuclei were stained for 30 min with 20 µL of a solution containing 20 µM Hoechst 33342, and the images were then acquired with a 10 × objective lens using the ImageXpress® Micro (Molecular Devices) high content microplate imager. Nuclei were evaluated in the DAPI channel (excitation 377 ± 50 nm, emission 447 ± 60 nm), whereas Rhodamine 123 fluorescence was detected in the FITC channel (excitation 475 ± 34 nm, emission 536 ± 40 nm). Analysis of the Hoechst 33,342 and Rhodamine 123 fluorescence was performed using the MetaXpress® Software (Molecular Devices) with the Transfluor HT plug-in and the parameters nuclei (for Hoechst-33342) and integrated granule intensity (for Rhodamine 123). Mitochondrial membrane potential (MMP) was quantified as the total fluorescence intensity of Rhodamine 123 in relation to the number of Hoechst-stained nuclei."}},
  "note": "“Also recorded” adds a separate entry of the source.",
  "data": [
    {"compound": "Cc1nn(C)c(Oc2ccccc2)c1C=NOCc1ccc(C(=O)OC(C)(C)C)cc1", "note": "[Fenpyroximate]", "values": [
      {"measurement": "Increase in sensitivity of neurite EC25, 120 h versus 24 h exposure", "setting": "LUHMES cells [1]", "result": "five-to-eightfold"},
      {"measurement": "Neurite degeneration (in words)", "setting": "SH-SY5Y cells [2]", "result": "degeneration of neurites; also recorded: increased neurite degeneration"},
      {"measurement": "Reduction in viability", "setting": "SH-SY5Y cells [2]", "result": "> 25", "unit": "%"},
      {"measurement": "EC25", "setting": "U2OS cells", "result": "> 50.1", "unit": "µM"},
      {"measurement": "EC25", "setting": "LUHMES cells [3]", "result": 12.6, "unit": "µM"},
      {"measurement": "EC25", "setting": "LUHMES cells [4]; NeuriTox exposure scheme, 24 h, read-out: LUHMES 24 h EC25 NA (neurite area) (converted)", "result": 15.8, "unit": "µM"},
      {"measurement": "EC25", "setting": "LUHMES cells [4]; NeuriTox exposure scheme, 24 h, read-out: LUHMES 24 h EC25 V (viability) (converted)", "result": 39.8, "unit": "µM"},
      {"measurement": "EC25", "setting": "LUHMES cells [4]; NeuriTox test, neurite outgrowth impairment, LUHMES 24 h, read-out: EC25 KE4 (AO) Neurite toxicity (converted)", "result": 15.8, "unit": "µM"},
      {"measurement": "EC25", "setting": "SH-SY5Y cells [5]", "result": 0.794, "unit": "µM"}
    ]}
  ]
}
